Our source for the solubility and concentration of polydatin values is patent US20080261902A1, “Pharmaceutical composition containing polydatin and its application” (Shenzhen Neptunus Pharmaceutical Co., Ltd., priority 2005, published 2008).

A short description of this data set: Solubility of polydatin in alcohol-propanediol-water mixed solvent (Embodiment 15). To be noted: for solubility at 8 h: aqueous with cosolvent or surfactant or cyclodextrin, thermodynamic from solid. The data set is classed as physicochemical. From the text: 1. Materials: Anhydrous alcohol, analytically pure, Guangzhou No. 2 chemical reagent factory; 1,2-propanediol, analytically pure, Guangzhou No. 2 chemical reagent factory; purified water, […] industry city. 2. Method: Precisely measuring alcohol water solution of 45%, 60%, 75%(v/v), precisely adding propanediol at volume proportions of 10:1, 10:2, 10:2.5, 10:3, 10:4, preparing mixed solvents. The mixed solvents obtained contain propanediol of about 10%˜30%(v/v), alcohol of about 32%˜68%(v/v). Precisely measuring 20 ml of each above mixed solvent, adding polydatin of proper amount respectively, treating with ultrasonic for 20 min under 40° C., supersaturating the solution, placing for 8 h under room temperature, filtering with 0.45 μm microporous membrane, wherein the filtrates are saturated solutions of polydatin in different mixed solutions. Adopting HPLC method to determine content of polydatin in the filtrates and calculate solubility of polydatin referring to document 20.

Converted amounts (≈) assume the structure as drawn.

A word on the solubility: it is how much of the substance goes into solution per volume. Higher therefore signals much dissolved substance. On to `OCC1OC(Oc2cc(O)cc(/C=C/c3ccc(O)cc3)c2)C(O)C(O)C1O` [polydatin, 3,4′,5-trihydroxy-trans stilbene-3-β-D-glucoside], for which the solubility at 8 h runs as follows: (alcohol-propanediol-water mixed solvent, 45% alcohol water/propanediol 10/1) 27.8 mg/mL (≈ 71.2 mM); (alcohol-propanediol-water mixed solvent, 45% alcohol water/propanediol 10/2) 34.3 mg/mL (≈ 87.9 mM); (alcohol-propanediol-water mixed solvent, 45% alcohol water/propanediol 10/2.5) 39.5 mg/mL (≈ 101 mM); (alcohol-propanediol-water mixed solvent, 45% alcohol water/propanediol 10/3) 42.4 mg/mL (≈ 109 mM); (alcohol-propanediol-water mixed solvent, 45% alcohol water/propanediol 10/4) 52.2 mg/mL (≈ 134 mM); (alcohol-propanediol-water mixed solvent, 60% alcohol water/propanediol 10/1) 55.7 mg/mL (≈ 143 mM). Also, the solubility at 8 h runs as follows: (alcohol-propanediol-water mixed solvent, 60% alcohol water/propanediol 10/2) 66.4 mg/mL (≈ 170 mM); (alcohol-propanediol-water mixed solvent, 60% alcohol water/propanediol 10/2.5) roughly 75 mg/mL (≈ 192 mM); (alcohol-propanediol-water mixed solvent, 60% alcohol water/propanediol 10/3) 93.3 mg/mL (≈ 239 mM); (alcohol-propanediol-water mixed solvent, 60% alcohol water/propanediol 10/4) 95.2 mg/mL (≈ 244 mM); (alcohol-propanediol-water mixed solvent, 75% alcohol water/propanediol 10/1) 81.5 mg/mL (≈ 209 mM); (alcohol-propanediol-water mixed solvent, 75% alcohol water/propanediol 10/2) 89.8 mg/mL (≈ 230 mM). Besides, the concentration in solution (alcohol-propanediol-water mixed solvent, 75% alcohol water/propanediol 10/2.5) (solubility at 8 h) was 92.9 mg/mL (≈ 238 mM); the solubility at 8 h (alcohol-propanediol-water mixed solvent, 75% alcohol water/propanediol 10/3) worked out at 98.4 mg/mL (≈ 252 mM); the concentration in solution (alcohol-propanediol-water mixed solvent, 75% alcohol water/propanediol 10/4) (solubility at 8 h) came to 116 mg/mL (≈ 297 mM); the solubility at 8 h (alcohol-water solution without propanediol, 45% alcohol water, no propanediol (10/—)) stood at 20.2 mg/mL (≈ 51.7 mM); the concentration in solution (alcohol-water solution without propanediol, 60% alcohol water, no propanediol (10/—)) (solubility at 8 h) came to 42.5 mg/mL (≈ 109 mM); the solubility at 8 h (alcohol-water solution without propanediol, 75% alcohol water, no propanediol (10/—)) is 75.1 mg/mL (≈ 192 mM). The concentration of polydatin result (mixed solvent of 60% alcohol-water and propanediol 10:2.0~10:4.0) is on record as “higher than 60 mg/ml”.
